Test results taken from US20090232735A1, “USE OF FRUCTOSE-BASED THERAPIES FOR THE TREATMENT OF CANCER” (CEDARS-SINAI MEDICAL CENTER, priority 2005, published 2009).

Legend:
Format in all cases: cell-based, human
transketolase (TKK) = assay: Transketolase expression by Western blot in PANC-1 cells; settings: PANC-1, 5.5 mM fructose, 24 h and 48 h
Experimental: FIG. 33 depicts Western blot analysis of transketolase expression in pancreatic cancer PANC-1 cells following incubation in 2 mM glucose (lanes 1 & 4), 5.5 mM glucose (lanes 2 & 5), and 5.5 mM fructose for 24 h, and 48 h, respectively, in accordance with an embodiment of the present invention. Quantitation of TKK protein levels is depicted in the lower panel.
The inventors believe that fructose-treatment of pancreatic cancer cells led to an increase in TKK-driven nucleic acid synthesis, and thus fructose-treatment would result in an increase in either PANC-1 TKK expression and/or activity in comparison to equivalent glucose concentrations. Western blot analysis on protein lysates derived from fructose-, and glucose-treated PANC-1 cells were performed (5.5 mM fructose, and glucose for 24, and 48 h as per previous protocol) using a specific TKK antibody, and compared TKK expression in the fructose-, and glucose-treated PANC-1 cells. […] After gentle mixing the absorbance of the mixture was measured at 10 min intervals for 2 h at 340 nm. Transketolase activity was then derived from the difference in absorbance at 10, and 80 minutes, and expressed as nmol/min/million cells. […] Pancreatic cancer proliferation rates were then measured using the MTS assay (FIG. 35).

[1] = system: ER positive MCF-7 breast cancer cells; assay: Breast cancer cell proliferation (MTT assay), MCF-7
Experimental: Estrogen receptor (ER) positive MCF-7, and ER negative MDA-MB231 cells were plated in 5 mM fructose or glucose for times between 8-72 h, and proliferative rates measured using MTT assay. *, p<0.05; **, p<0.01.
FIG. 5 depicts fructose-mediated increased breast cancer proliferation in accordance with an embodiment of the present invention. ER positive MCF-7, and ER negative MDA-MB231 cells were plated in a range of fructose or glucose concentrations (5-25 mM) for 72 h, after which proliferative rates were measured using an MTT assay. *, p<0.05 for concentrations between 5-25 mM fructose versus glucose.
Standard media for breast cancer cell culture contain either 5-7 mM (low) and 12-25 mM (high) glucose concentrations. Estrogen receptor (ER) positive MCF-7, and ER negative MDA-MB231 cells were cultured overnight in 2 mM glucose standard DMEM medium containing 10% fetal bovine serum prior to incubation for periods between 8, and 72 hours in standard DMEM medium containing 10% fetal bovine serum, and 5 mM glucose or 5 mM fructose.
Proliferative rates were then measured in replicate (minimum of 6) aliquot wells of the breast cancer cells grown in glucose, or fructose containing medium. […] In separate experiments, proliferative rates of the MCF-7, and MDA-MB231 breast cancer cells were compared following culture in a range of fructose, and glucose concentrations (2-25 mM) for 72 hours.

GLUT-5 mRNA = GLUT-5 mRNA by quantitative real-time RT-PCR in MCF-7 cells
Experimental: FIG. 10 depicts GLUT-5 expression levels in accordance with an embodiment of the present invention. MCF-7 breast cancer cells were incubated in 2 mM glucose (Glu), 5.5 mM glucose (Glu) or 5.5 mM fructose (Fru) for 4 or 24 hours, after which GLUT-5 expression was quantified using real-time RT-PCR, normalized to GAPDH levels, and expressed as fold-increase compared to GLUT-5 levels detected in MCF-7 cells cultured in 2 mM glucose for a similar time period.
Cellular fructose uptake is facilitated by a member of solute carrier family 2, called glucose transporter type 5 (GLUT-5). Following incubation of MCF-7 breast cancer cells in 2 mM, 5.5 mM glucose or 5.5 mM fructose for […], total RNA was harvested, and analyzed by quantitative real-time RT-PCR analysis using GLUT-5 specific primers to quantify GLUT-5 mRNA expression. GLUT-5 expression was normalized to GAPGH mRNA expression, and expressed as fold-change in comparison to control breast cancer cells incubated in 2 mM glucose for 4, and 24 hours.

O=C(CO)[C@@H](O)[C@H](O)[C@H](O)CO [fructose]
TKK levels higher than 5.5 mM glucose-treated cells (transketolase (TKK)): ~2 fold | proliferative rates in fructose compared to glucose ([1]; MCF-7, 5 mM fructose vs 5 mM glucose, 8-72 h): higher proliferative rates | proliferative rates in 5 mM fructose compared to 25 mM glucose ([1]; MCF-7, 72 hours, 5 mM fructose vs 5-fold higher glucose (25 mM)): higher proliferative rates | increase in GLUT-5 mRNA compared to cells in 5.5 mM glucose (GLUT-5 mRNA; MCF-7, 5.5 mM fructose, 24 hour incubation): two-fold increase | change in GLUT-5 mRNA expression (GLUT-5 mRNA; MCF-7, 4 hours, vs 2 mM glucose): no significant change
